{"source": "patent US10682417B2", "about": "“Targeted sensitization of non-del(5q) malignant cells” (H. LEE MOFFITT CANCER CENTER AND RESEARCH INSTITUTE, INC., priority 2013, dated 2020)", "key": {"U937 cells": {"system": "U937 cells", "assay": "Apoptosis after dual Cdc25C/PP2Acα shRNA knockdown plus lenalidomide, U937 cells", "assay_type": "cell-based", "settings": "dual Cdc25C and PP2Acα shRNA knockdown 48 hours, then lenalidomide 5 μM for 48 hours", "method": "(§1) FIGS. 2A-2B are images of an RT-PCR gel (FIG. 2A) and Western blot (FIG. 2B) to detect PP2A and Cdc25C gene (FIG. 2A) and protein (FIG. 2B) expression in U937 cells infected with mock (lane 1), lentiviral vectors encoding non-target shRNA control (lane 2), shCdc25C (lane 3), shPP2Acα (lane 4), shCdc25C and PP2Acα (lane 5) and negative for PCR (lane 6) and harvested 48 hours after incubation. FIGS. 2C and 2D are bar graphs showing P2Acα and Cdc25c mRNA expression (copies/GAPDH) in U937 cells infected with mock, lentiviral vectors encoding non-target shRNA control, shCdc25C, shPP2Acα, or shCdc25C and PP2Acα. FIGS. 2E-2F are bar graphs showing apoptosis (%) in U937 cells (E) or BM-MNC (F) that were infected with lentiviral vectors containing various constructs as indicated for 48 hours and then treated with or without lenalidomide at the concentration of […] for additional 48 hours before being analyzed for apoptosis. […]\n(§2) U937 cells were infected with mock (lane 1), lentiviral vectors encoding non-target shRNA control (lane 2), shCdc25C (lane 3), shPP2Acα (lane 4), shCdc25C and PP2Acα (lane 5) and negative for PCR (lane 6). […] The U937 cells (FIG. 2C) or BM-MNC (FIG. 2D) were infected with lentiviral vectors containing various constructs as indicated for 48 hours and then treated with or without lenalidomide at the concentration of 5 μM for additional 48 hours before analyzed for apoptosis. […]"}, "[1]": {"system": "BM-MNC from non-(del)5q MDS patients", "assay": "Apoptosis after dual Cdc25C/PP2Acα shRNA knockdown plus lenalidomide, BM-MNC", "assay_type": "cell-based, human", "settings": "dual knockdown 48 hours, then lenalidomide 5 μM for 48 hours, p<0.001 vs shRNA control plus lenalidomide, five patients", "method": "as §1, §2"}, "del5q MDS": {"system": "del5q MDS", "settings": "patients with del5q MDS; cited from earlier work"}}}
{"smiles": "Nc1cccc2c1CN(C1CCC(=O)NC1=O)C2=O", "note": "(racemic) [lenalidomide, (RS)-3-(4-Amino-1-oxo 1,3-dihydro-2H-isoindol-2-yl)piperidine-2,6-dione]", "values": [{"measurement": "apoptotic response to lenalidomide", "setting": "U937 cells", "value": "increases apoptotic response"}, {"measurement": "apoptotic response to lenalidomide", "setting": "[1]", "value": "increases apoptotic response"}, {"measurement": "median duration of response", "setting": "del5q MDS", "value": 2.5, "unit": "years"}]}
